In PMC9743094, “Synthesis and Evaluation of Polymyxins Bearing Reductively Labile Disulfide-Linked Lipids” (Journal of Medicinal Chemistry, 2022):

Tests used:
[1] = tested on: Red blood cells from defibrinated sheep blood; experiment: Hemolysis assay; assay type: cell-based; conditions: 128 μg/mL, 1 h, 37 °C, absorbance 415 nm, normalized to 0.1% Triton-X100, triplicates
Protocol: Red blood cells from defibrinated sheep blood (Thermo Fisher Scientific) were centrifuged (400g for 15 min at 4 °C) and washed with PBS containing 0.002% Tween20 four times. The red blood cells were normalized to obtain an absorbance value between 2.5 and 3.0 at 415 nm to stay in the linear range of the assay with maximum sensitivity. A serial dilution of the compounds (128–4 μg/mL, 75 μL) was prepared in a 96-well plate. Each plate contained a positive control (0.1% Triton-X final concentration, 75 μL) and a negative control (buffer, 75 μL). The normalized blood cells (75 μL) were added, and the plates were incubated at 37 °C for 1 h while shaking at 500 rpm. After incubation, the plates were centrifuged (800g for 5 min at RT) and 25 μL of the supernatant was transferred to a second plate, containing 100 μL of PBS in each well. Absorbance was read-out at 415 nm. Values were corrected for background (negative control) and transformed to a percentage relative to the positive control. Results shown (Supporting Information Figure S2) are based on triplicate data.
Stability assessment in presence of glutathione
Figure S1. Compound stability upon incubation with low (5 μM) or high (5 mM) glutathione (GSH) concentration.
Compounds were incubated in PBS with the indicated concentration glutathione for 24 hours. Indicated data points are
based upon integration of HPLC UV data.
Figure S2. […]

[2] = tested on: differentiated conditionally immortalized PTECs (ciPTECs, OAT-1); experiment: ciPTEC toxicity assay (PrestoBlue); assay type: cell-based, human; conditions: 37 °C
Method in brief: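 ciPTEC (OAT-1) cells were differentiated 24 h at 33 °C then 6 days at 37 °C before 24 h exposure at 37 °C to serially diluted compounds in serum-free medium. Viability by 10% PrestoBlue fluorescence (530/590 nm), relative to untreated cells. TC50 from nonlinear regression with bottom fixed at 0; triplicates.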

[3] = tested on: K. pneumoniae (ATCC 13883); assay type: cell-based; conditions: broth microdilution, CLSI, CAMHB, 10^6 CFU/mL, 37 °C, visual growth; triplicate experiments
Method in brief: (§1)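 Broth microdilution per CLSI in cation-adjusted Mueller–Hinton Broth (12.5 μg/mL Mg^2+, 20 μg/mL Ca^2+), inoculum 10^6 CFU/mL final, 37 °C. MIC taken as lowest concentration with no visible growth, consistent across at least duplicate experiments.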

[4] = tested on: P. aeruginosa (ATCC 27853); assay type: cell-based; conditions: broth microdilution, CLSI, CAMHB, 10^6 CFU/mL, 37 °C, visual growth; triplicate experiments
Method in brief: as §1

E. coli (ATCC 25922) = assay type: cell-based; conditions: broth microdilution, CLSI, CAMHB, 10^6 CFU/mL, 37 °C, visual growth; triplicate experiments
Method in brief: as §1

[5] = tested on: A. baumannii (ATCC 19606); assay type: cell-based; conditions: broth microdilution, CLSI, CAMHB, 10^6 CFU/mL, 37 °C, visual growth; triplicate experiments
Method in brief: as §1

P. aeruginosa 2018-007 = assay type: cell-based; conditions: resistance indicator: IMP-7; broth microdilution, CAMHB
Protocol: (§2) Minimum inhibitory concentrations (MICs) on relevant Gram-negative bacteria were determined by broth microdilution, in accordance with CLSI guidelines. Indicated bacteria were taken from glycerol stocks and incubated overnight on blood agar at 37 °C. Well-isolated colonies were taken, suspended in TSB (5 mL), and grown to an OD600 of 0.5. Compounds to be tested were dissolved in DMSO (6.4 mg/mL), diluted in cation-adjusted Mueller–Hinton Broth (CAMHB) (12.5 and 20 μg/mL Mg^2+ and Ca^2+, respectively), and diluted serially on polypropylene microtiter plates. To the diluted compounds (50 μL per well) was added 50 μL of relevant bacterial suspension, to yield a final concentration of 10^6 CFU/mL. Plates were covered by adhesive gas-permeable membranes and incubated at 37 °C. MIC was read out as the lowest concentration that inhibited visual bacterial growth. Shown values are consistent results from at least duplicate experiments.
(§3) Bacterial strains used for MIC assays and extended MIC assessment
(§4) Strains: The following strains were obtained from BEI Resources, NIAID, NIH: E. Coli M0072, strain
(§5) Table S2. […] Values are given in μg/mL.
(§6) Species Strain ID Resistance Polymyxin B 18b 23a 24a

A. baumannii NRZ-00687 = assay type: cell-based; conditions: resistance indicator: NDM-2; broth microdilution, CAMHB
Protocol: as §2, §3, §4, §5, §6

K. pneumoniae ATCC 29665 = assay type: cell-based; conditions: broth microdilution, CAMHB
Protocol: as §2, §3, §4, §5, §6

P. aeruginosa 2251 = assay type: cell-based; conditions: resistance indicator: VIM-2; broth microdilution, CAMHB
Protocol: as §2, §3, §4, §5, §6

E. coli JS136 = assay type: cell-based; conditions: resistance indicator: OXA-48; broth microdilution, CAMHB
Protocol: as §2, §3, §4, §5, §6

E. coli 1793 = assay type: cell-based; conditions: resistance indicator: NDM-1; broth microdilution, CAMHB
Protocol: as §2, §3, §4, §5, §6

K. pneumoniae KP1.53 = assay type: cell-based; conditions: resistance indicator: MDR; broth microdilution, CAMHB
Protocol: as §2, §3, §4, §5, §6

P. aeruginosa M120 = assay type: cell-based; conditions: resistance indicator: OXA-50, blaPAO; broth microdilution, CAMHB
Protocol: as §2, §3, §4, §5, §6

A. baumannii BAA-747 = assay type: cell-based; conditions: broth microdilution, CAMHB
Protocol: as §2, §3, §4, §5, §6

A. baumannii RUH-134 = assay type: cell-based; conditions: resistance indicator: Multiple; broth microdilution, CAMHB
Protocol: as §2, §3, §4, §5, §6

P. aeruginosa ATCC 10145 = assay type: cell-based; conditions: broth microdilution, CAMHB
Protocol: as §2, §3, §4, §5, §6

E. coli M0072 = assay type: cell-based; conditions: resistance indicator: Multiple; broth microdilution, CAMHB
Protocol: as §2, §3, §4, §5, §6

K. pneumoniae RC0045 = assay type: cell-based; conditions: resistance indicator: OXA-48; broth microdilution, CAMHB
Protocol: as §2, §3, §4, §5, §6

A. baumanii (ATCC 17961) = assay type: cell-based; conditions: broth microdilution, CAMHB
Protocol: as §2
(§7) Table S3. MIC values [µg/mL] and relative toxicity values for disulfide containing polymyxin derivative 18b and
(§8) non-disulfide containing analogue 45. […]

P. aeruginosa (PAO1) = assay type: cell-based; conditions: broth microdilution, CAMHB
Protocol: as §2, §7, §8

MIC K. pneumoniae (ATCC 13883) [3]: 0.25 µg/mL | MIC P. aeruginosa (ATCC 27853) [4]: 1 µg/mL | MIC E. coli (ATCC 25922) (E. coli (ATCC 25922)): 1 µg/mL | MIC A. baumannii (ATCC 19606) [5]: 0.25 µg/mL | MIC P. aeruginosa 2018-007 (P. aeruginosa 2018-007): 2 µg/mL | MIC A. baumannii NRZ-00687 (A. baumannii NRZ-00687): 0.25 µg/mL | MIC K. pneumoniae ATCC 29665 (K. pneumoniae ATCC 29665): 0.25 µg/mL | MIC P. aeruginosa 2251 (P. aeruginosa 2251): 1 µg/mL | MIC E. coli JS136 (E. coli JS136): 0.125 µg/mL | MIC E. coli 1793 (E. coli 1793): 0.063 µg/mL | MIC K. pneumoniae KP1.53 (K. pneumoniae KP1.53): 0.5 µg/mL | MIC P. aeruginosa M120 (P. aeruginosa M120): 1 µg/mL | MIC A. baumannii BAA-747 (A. baumannii BAA-747): 0.25 µg/mL | MIC A. baumannii RUH-134 (A. baumannii RUH-134): 0.25 µg/mL | MIC P. aeruginosa ATCC 10145 (P. aeruginosa ATCC 10145): 1 µg/mL | MIC E. coli M0072 (E. coli M0072): 0.125 µg/mL | MIC K. pneumoniae RC0045 (K. pneumoniae RC0045): 0.25 µg/mL | MIC A. baumanii (ATCC 17961) (A. baumanii (ATCC 17961)): 0.25 µg/mL | MIC P. aeruginosa (PAO1) (P. aeruginosa (PAO1)): 0.5 µg/mL
Substance: Polymyxin B [reference compound]
percent hemolysis [1]: below 5% | ciPTEC Toxicity Index (relative to polymyxin B) ([2]; TC50 expressed relative to polymyxin B, 24 h incubation, serum-free medium, PrestoBlue fluorescence, nonlinear regression, triplicate): 1.0 | TC50, Day 1 ([2]; cell batch/analysis Day 1, ciPTEC, 24 h, PrestoBlue, non-linear regression with bottom constraint at 0, triplicates): 80 µM | TC50, Day 2 ([2]; cell batch/analysis Day 2, ciPTEC, 24 h, PrestoBlue, non-linear regression with bottom constraint at 0, triplicates): 41 µM
